Consider three molecules from ChEMBL document CHEMBL1201862, “PubChem BioAssay data set” (2004).

Active and inactive are the calls of the source. A value given as a limit tells only on which side of the number the result lay.

Assay [1] concerns the target T1, Replicative DNA helicase DnaB (Mycobacterium tuberculosis, UniProt P9WMR3).
T1 sequence (P9WMR3 whole entry): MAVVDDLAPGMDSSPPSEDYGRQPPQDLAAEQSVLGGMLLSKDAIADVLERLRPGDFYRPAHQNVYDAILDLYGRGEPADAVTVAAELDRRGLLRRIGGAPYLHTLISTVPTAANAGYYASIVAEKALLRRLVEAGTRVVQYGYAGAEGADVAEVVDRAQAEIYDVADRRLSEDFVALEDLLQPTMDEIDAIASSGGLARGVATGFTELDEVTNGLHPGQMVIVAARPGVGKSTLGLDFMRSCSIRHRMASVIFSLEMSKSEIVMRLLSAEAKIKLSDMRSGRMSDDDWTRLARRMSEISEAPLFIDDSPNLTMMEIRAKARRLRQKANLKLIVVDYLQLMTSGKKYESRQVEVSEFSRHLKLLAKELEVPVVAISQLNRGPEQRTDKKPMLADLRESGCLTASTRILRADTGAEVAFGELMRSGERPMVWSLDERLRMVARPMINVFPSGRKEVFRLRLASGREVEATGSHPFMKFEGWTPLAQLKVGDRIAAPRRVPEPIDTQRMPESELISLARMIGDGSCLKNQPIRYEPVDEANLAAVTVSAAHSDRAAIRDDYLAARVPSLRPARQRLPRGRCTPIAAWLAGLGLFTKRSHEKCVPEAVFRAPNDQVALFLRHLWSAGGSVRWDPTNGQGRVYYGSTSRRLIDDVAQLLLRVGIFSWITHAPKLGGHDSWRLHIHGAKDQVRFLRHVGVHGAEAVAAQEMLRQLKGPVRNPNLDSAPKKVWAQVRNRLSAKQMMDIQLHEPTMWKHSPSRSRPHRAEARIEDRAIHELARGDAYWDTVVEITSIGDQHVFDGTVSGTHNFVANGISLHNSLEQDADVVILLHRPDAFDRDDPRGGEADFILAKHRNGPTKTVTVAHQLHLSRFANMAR
As to the kind of experiment: DnaB intein splicing inhibitors, dose response, biochemical, cell-free fluorescence (AID 449749). The format is functional.

Assay [2] addresses T2, Sentrin-specific protease 8 (Homo sapiens, UniProt Q96LD8).
T2 sequence (Q96LD8 whole entry): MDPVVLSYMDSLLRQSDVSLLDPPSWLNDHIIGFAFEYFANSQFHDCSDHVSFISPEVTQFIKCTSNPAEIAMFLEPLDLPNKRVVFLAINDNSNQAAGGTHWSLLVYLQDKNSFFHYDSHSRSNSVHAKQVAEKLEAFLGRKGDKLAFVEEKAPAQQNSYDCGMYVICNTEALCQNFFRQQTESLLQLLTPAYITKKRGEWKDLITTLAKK
In words: inhibition of human SENP8 cleavage activity – biochemical, luminescence, SAR follow-up (AID 504501). It counts as functional.

Assay [3] has as its target Tyrosine-protein kinase JAK2 (Homo sapiens, UniProt O60674). The format is functional.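 Note: JAK2 tested as one member of a kinase panel.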
Assay [4] concerns the target Serine/threonine-protein kinase TBK1 (Homo sapiens, UniProt Q9UHD2). As to the kind of experiment: Navigating the Kinome. Panel member name: TBK1. The format is functional.
Assay [5] concerns the target Death-associated protein kinase 3 (Homo sapiens, UniProt O43293). The format is functional.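 Note: measured as one member of a kinome-wide profiling panel.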
In assay [6] the target is Mitogen-activated protein kinase 9 (Homo sapiens, UniProt P45984). It counts as functional.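 Note: value from a kinome panel profiling assay, MAPK9 panel entry.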
The target in assay [7] is Hepatocyte growth factor receptor (Homo sapiens, UniProt P08581). The format is functional.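 Note: kinase panel profiling across the kinome, with MET as the panel member.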
For assay [8], the target named is Receptor-type tyrosine-protein kinase FLT3 (Homo sapiens, UniProt P36888). The format is functional.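 Note: FLT3 was tested as one member of a kinome-wide kinase panel.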
Assay [9] addresses Tyrosine-protein kinase ABL1 (Homo sapiens, UniProt P00519). It counts as functional.
Assay [10] deals with Insulin-like growth factor 1 receptor (Homo sapiens, UniProt P08069). As to the kind of experiment: Navigating the Kinome. Panel member name: IGF1R. It counts as functional.
Assay [11] concerns the target cAMP-dependent protein kinase catalytic subunit PRKX (Homo sapiens, UniProt P51817). The format is functional.
In assay [12] the target is Leucine-rich repeat serine/threonine-protein kinase 2 (Homo sapiens, UniProt Q5S007). The format is functional.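 Note: value from a broad kinome-wide panel profiling study in which LRRK2 was one of the kinases tested.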
The target of assay [13] is Cyclin-dependent kinase 7 (Homo sapiens, UniProt P50613). The format is functional.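 Note: value comes from a kinome-wide kinase profiling panel in which CDK7 is one member.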
In assay [14] the target is Cyclin-dependent kinase 9 (Homo sapiens, UniProt P50750). The format is functional.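 Note: value from the CDK9 entry of a kinome-spanning kinase panel.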
In assay [15] the target is cAMP-dependent protein kinase catalytic subunit alpha (Homo sapiens, UniProt P17612). The format is functional.
Assay [16] addresses Macrophage colony-stimulating factor 1 receptor (Homo sapiens, UniProt P07333). The format is functional.
Assay [17] concerns the target Dual specificity mitogen-activated protein kinase kinase 2 (Homo sapiens, UniProt P36507). In words: Navigating the Kinome. Panel member name: MAP2K2. It counts as functional.
Assay [18] addresses Calcium/calmodulin-dependent protein kinase type II subunit alpha (Homo sapiens, UniProt Q9UQM7). As to the kind of experiment: Navigating the Kinome. Panel member name: CAMK2A. The format is functional.
Assay [19] has as its target Mitogen-activated protein kinase 14 (Homo sapiens, UniProt Q16539). It counts as functional.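 Note: part of a kinome-wide panel, MAPK14 entry.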
Assay [20] in a line: Luminescence Cell-Based Dose Response HTS to Identify Inhibitors of 5'UTR Stem-Loop Driven Prion Protein mRNA Translation in H4 Neuroglioblastoma Cells. [Related pubchem assays: 1827 (Project Summary), 1813 (Primary HTS)]. It counts as functional.
Another assay concerns the target T3, Streptokinase A (Streptococcus pyogenes serotype M1, UniProt P10520).
T3 sequence (P10520 whole entry): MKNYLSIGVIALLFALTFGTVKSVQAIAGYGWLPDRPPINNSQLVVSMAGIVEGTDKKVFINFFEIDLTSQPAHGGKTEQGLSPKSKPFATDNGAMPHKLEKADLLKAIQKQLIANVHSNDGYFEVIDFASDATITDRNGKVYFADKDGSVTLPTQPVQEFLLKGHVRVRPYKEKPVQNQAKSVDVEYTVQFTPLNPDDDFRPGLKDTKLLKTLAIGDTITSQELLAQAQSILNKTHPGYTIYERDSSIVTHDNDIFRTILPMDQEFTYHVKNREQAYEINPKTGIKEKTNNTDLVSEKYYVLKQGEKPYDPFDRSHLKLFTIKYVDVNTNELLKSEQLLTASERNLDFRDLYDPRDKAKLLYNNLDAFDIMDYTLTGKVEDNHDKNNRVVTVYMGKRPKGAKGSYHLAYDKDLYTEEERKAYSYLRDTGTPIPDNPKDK
In words: viability-normalized secreted streptokinase activity reduction – plasminogen activation absorbance, OD405, dose response (AID 1914).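 Note: secreted streptokinase activity via plasminogen activation per viability signal from cell pellet.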 The format is functional, Streptococcus pyogenes M1 GAS.

A further assay relates to Streptococcus. In words: GAS UMAA2166 growth inhibition – luminescence, BacTiterGlo, counter-screen for streptokinase expression inhibitor project, dose response (AID 1915).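 Note: potency for reduction of bacterial viability or growth.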 It counts as functional, organism-based.
Assay [21] in a line: cAMP pathway inhibition in counterscreen cell line – TR-FRET cAMP detection, counter-screen for MC4R biased antagonist project, dose response (AID 602305).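 Note: U2OS cells stimulated with forskolin near its EC80 as the cAMP inducer; potency is for inhibition of forskolin-stimulated cAMP signaling.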 The format is functional, cell-based.

Chain of Cyclin-dependent kinase 7 (P50613 whole entry): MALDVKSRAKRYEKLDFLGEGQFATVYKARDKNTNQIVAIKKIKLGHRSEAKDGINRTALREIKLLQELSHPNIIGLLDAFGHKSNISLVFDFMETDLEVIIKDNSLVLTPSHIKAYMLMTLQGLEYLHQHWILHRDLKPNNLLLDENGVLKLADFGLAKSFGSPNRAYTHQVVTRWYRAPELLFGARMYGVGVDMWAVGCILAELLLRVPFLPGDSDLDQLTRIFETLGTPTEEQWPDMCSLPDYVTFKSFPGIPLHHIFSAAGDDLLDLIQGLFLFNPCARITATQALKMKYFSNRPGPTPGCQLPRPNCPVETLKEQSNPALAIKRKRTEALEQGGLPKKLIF
Chain of Calcium/calmodulin-dependent protein kinase type II subunit alpha (Q9UQM7 whole entry): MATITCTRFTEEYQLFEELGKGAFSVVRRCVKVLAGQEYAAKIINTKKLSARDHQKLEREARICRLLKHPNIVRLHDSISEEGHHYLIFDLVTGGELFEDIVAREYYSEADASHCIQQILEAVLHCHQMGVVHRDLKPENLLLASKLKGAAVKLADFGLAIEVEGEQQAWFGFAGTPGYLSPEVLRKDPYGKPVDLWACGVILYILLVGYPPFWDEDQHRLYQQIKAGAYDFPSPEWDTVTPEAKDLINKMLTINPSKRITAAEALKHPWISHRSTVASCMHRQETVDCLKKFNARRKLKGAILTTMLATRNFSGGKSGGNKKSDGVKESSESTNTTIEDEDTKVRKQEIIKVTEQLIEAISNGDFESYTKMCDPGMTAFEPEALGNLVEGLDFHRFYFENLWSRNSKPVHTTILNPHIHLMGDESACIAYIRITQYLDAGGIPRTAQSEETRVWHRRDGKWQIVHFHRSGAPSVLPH
Chain of Mitogen-activated protein kinase 14 (Q16539 whole entry): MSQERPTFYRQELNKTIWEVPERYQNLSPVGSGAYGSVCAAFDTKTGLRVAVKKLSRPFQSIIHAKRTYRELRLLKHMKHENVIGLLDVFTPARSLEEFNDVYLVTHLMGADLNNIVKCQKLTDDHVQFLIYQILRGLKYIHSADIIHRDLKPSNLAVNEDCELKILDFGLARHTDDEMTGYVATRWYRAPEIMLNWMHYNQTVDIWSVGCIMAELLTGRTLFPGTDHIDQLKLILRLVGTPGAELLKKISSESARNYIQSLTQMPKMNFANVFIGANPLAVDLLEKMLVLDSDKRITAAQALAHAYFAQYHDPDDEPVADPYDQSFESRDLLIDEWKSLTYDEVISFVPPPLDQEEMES
Chain of Death-associated protein kinase 3 (O43293 whole entry): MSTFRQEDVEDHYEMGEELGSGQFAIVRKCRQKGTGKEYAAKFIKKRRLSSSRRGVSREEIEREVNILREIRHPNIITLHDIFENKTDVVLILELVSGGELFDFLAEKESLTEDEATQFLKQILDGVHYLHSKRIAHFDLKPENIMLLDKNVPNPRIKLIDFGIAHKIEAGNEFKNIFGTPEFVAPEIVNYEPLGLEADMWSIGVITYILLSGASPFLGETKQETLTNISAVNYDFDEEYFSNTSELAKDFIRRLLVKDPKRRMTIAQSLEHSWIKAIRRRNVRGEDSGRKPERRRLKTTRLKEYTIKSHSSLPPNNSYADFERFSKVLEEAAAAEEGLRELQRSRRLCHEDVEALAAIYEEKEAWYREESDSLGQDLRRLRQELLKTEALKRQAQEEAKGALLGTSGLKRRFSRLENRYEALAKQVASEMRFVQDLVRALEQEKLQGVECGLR
Chain of Receptor-type tyrosine-protein kinase FLT3 (P36888 whole entry): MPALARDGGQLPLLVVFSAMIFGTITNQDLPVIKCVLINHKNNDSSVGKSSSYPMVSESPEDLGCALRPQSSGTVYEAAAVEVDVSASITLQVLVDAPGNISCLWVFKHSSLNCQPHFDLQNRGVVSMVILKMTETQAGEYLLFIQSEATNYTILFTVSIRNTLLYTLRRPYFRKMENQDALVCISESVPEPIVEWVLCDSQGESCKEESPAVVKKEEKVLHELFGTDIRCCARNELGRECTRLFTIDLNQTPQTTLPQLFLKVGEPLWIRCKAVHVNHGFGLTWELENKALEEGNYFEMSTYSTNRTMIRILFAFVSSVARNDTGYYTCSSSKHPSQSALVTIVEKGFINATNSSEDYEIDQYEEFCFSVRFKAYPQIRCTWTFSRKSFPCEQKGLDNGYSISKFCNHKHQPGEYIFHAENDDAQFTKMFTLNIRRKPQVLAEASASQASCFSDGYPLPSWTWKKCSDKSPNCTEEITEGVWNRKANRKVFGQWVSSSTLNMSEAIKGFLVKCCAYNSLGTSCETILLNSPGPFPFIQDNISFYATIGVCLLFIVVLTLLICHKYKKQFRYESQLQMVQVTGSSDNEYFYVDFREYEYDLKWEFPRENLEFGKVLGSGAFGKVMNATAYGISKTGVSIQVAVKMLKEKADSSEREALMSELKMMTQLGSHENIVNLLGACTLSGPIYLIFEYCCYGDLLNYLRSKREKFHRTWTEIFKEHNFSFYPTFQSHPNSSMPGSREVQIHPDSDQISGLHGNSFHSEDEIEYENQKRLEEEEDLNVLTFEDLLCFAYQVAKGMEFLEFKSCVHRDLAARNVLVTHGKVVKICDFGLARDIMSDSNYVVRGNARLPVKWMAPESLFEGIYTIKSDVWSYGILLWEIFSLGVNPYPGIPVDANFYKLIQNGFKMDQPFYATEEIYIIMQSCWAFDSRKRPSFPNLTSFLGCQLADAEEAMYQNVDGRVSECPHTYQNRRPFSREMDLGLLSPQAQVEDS
Chain of Tyrosine-protein kinase ABL1 (P00519 whole entry): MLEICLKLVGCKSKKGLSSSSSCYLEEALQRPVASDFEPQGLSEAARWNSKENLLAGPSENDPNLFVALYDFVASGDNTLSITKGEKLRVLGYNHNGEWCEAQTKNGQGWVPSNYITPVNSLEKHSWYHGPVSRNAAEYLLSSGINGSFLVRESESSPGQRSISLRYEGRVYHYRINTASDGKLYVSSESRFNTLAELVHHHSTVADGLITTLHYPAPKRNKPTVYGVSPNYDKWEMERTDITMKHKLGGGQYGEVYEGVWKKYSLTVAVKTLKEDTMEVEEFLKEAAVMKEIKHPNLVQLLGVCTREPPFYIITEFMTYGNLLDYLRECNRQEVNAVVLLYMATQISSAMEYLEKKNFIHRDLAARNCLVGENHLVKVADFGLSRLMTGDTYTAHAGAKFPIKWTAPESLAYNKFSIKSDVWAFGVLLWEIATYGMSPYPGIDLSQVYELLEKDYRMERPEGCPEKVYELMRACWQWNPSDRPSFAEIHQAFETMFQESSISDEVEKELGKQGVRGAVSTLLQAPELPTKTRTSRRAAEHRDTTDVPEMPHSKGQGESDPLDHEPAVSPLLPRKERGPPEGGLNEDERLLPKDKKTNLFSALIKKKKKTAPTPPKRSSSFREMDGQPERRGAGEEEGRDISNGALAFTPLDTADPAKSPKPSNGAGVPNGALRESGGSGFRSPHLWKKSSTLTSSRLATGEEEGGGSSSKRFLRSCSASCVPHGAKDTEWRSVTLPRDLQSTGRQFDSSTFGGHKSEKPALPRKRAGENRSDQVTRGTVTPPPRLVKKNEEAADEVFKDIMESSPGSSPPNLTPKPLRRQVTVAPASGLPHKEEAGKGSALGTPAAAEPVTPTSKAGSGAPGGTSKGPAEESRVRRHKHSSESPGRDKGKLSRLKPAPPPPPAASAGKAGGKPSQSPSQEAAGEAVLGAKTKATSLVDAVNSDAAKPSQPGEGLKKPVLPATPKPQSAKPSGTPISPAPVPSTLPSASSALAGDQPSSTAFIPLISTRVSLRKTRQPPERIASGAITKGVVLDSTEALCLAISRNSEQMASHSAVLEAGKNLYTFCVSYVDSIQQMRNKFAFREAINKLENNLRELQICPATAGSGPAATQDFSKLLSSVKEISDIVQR
Chain of Tyrosine-protein kinase JAK2 (O60674 whole entry): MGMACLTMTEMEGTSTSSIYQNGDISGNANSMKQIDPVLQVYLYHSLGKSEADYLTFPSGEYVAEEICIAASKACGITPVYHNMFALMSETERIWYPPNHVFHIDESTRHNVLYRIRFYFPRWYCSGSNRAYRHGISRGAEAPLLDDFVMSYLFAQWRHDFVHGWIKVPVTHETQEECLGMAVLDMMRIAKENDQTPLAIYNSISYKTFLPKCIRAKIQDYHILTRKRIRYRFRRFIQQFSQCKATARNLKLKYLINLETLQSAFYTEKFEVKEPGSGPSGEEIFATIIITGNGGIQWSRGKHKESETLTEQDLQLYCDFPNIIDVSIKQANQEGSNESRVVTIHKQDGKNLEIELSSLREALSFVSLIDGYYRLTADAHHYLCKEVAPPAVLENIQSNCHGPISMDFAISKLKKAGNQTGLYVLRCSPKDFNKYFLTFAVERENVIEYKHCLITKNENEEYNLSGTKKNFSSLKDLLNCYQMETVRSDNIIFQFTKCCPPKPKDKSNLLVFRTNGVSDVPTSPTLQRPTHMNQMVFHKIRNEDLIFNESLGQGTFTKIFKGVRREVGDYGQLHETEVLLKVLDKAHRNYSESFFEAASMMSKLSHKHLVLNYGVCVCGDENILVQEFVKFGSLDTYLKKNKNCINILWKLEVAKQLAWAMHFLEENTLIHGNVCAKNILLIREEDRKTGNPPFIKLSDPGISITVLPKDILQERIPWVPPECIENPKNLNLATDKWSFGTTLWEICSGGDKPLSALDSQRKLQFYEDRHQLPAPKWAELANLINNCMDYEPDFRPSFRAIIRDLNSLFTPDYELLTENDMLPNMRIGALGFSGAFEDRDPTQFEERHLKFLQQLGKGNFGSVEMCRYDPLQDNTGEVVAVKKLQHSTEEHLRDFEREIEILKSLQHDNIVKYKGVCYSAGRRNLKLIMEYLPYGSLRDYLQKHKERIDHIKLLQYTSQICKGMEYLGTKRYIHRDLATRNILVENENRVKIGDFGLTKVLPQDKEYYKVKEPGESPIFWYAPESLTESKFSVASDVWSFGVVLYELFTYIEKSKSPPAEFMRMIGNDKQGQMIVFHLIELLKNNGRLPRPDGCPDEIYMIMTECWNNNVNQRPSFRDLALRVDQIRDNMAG

With `Cc1ccc(NC(=O)COc2cccc(/C=C3\SC(=S)N(CCC(=O)O)C3=O)c2)cc1Cl`, in assay [1], the AC50 is 6.13 µM (active). In assay [2], the IC50 was > 99 µM (inactive).
Turning to `COc1cccc(C(C)NC(=O)c2ccc(-c3ccncc3)s2)c1` (stereo not drawn), the Ki in assay [3] was > 2.51 µM (inactive); in [4], > 3.16 µM (inactive); in assay [5], > 5.01 µM (inactive); in assay [6], > 3.98 µM (inactive); in assay [7] it was > 2.51 µM (inactive); in assay [8], > 3.16 µM (inactive). In addition, the Ki is > 2.51 µM (inactive) in assay [9]; > 2.51 µM (inactive) in [10]; 2 µM (active) in [11]; > 2.51 µM (inactive) in assay [12]; > 3.98 µM (inactive) in assay [13]; > 1.58 µM (inactive) in assay [14]. In addition, the Ki was 79.4 nM (active) in assay [15]; > 2.51 µM (inactive) in assay [16]; > 3.98 µM (inactive) in assay [17]; > 3.98 µM (inactive) in [18]; > 3.98 µM (inactive) in [19].
As to `O=Nc1c(-c2c(O)[nH]c3cc(Br)ccc23)[nH]c2ccccc12`, the EC50 was > 120 µM (not active) in assay [20], 44.9 µM (active) on Streptokinase A and 3.48 µM (active) with Streptococcus. Besides, in assay [21], the IC50 was > 64.6 µM (inactive).
